Experimental data as given in patent publication US20150111764A1, “POLYMERIZED MICROARRAYS” (New York University, priority 2013, published 2015).

Tests used:
[1] = molecular target: T1, Rhodamine-labeled PNA (galactose-specific lectin) (Arachis hypogaea, UniProt P02872); assay: Control: glycan arrays exposed to Rhodamine-labeled PNA, fluorescence; type: binding; details: PNA 1.5×10^−5 M, 5 h, washed with phosphate buffer/Tween 20
T1 sequence (P02872 24-273): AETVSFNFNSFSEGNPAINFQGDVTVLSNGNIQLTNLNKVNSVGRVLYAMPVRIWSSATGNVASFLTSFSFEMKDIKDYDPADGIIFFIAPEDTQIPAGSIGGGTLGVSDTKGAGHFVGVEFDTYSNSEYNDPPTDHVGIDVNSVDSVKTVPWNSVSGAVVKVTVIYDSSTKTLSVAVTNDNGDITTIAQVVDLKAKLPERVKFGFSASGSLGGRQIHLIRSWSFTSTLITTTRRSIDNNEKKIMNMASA
From the text: Control Experiments. […] This experiment supports the conclusion that fluorescence in the Cy3-labelled ConA exposed arrays of compound 3 and compound 4 arise from ConA-glucose binding (FIG. 27).

Concanavalin A (ConA) = Concanavalin A (ConA) (Canavalia ensiformis, UniProt P02866)
From the text: Fluorescence intensity profiles of the array were obtained from a Nikon Eclipse Ti fluorescence microscope (λex=532-587 nm, λobs=608-683 nm), and extracted by NIS-elements software (Nikon Instruments, Inc.). Exposure times ranged from 1-4 s, depending on the brightness of the arrays. To compare data taken with different exposure times, the normalized fluorescence was obtained by dividing the maximum fluorescence by the background fluorescence. It is possible that the ratio of signal-to-background can vary with exposure time, so to test the effect of exposure time on the normalized fluorescence of features on the microarray, fluorescence images of a surface patterned with compound 4 and bound to Cy3-modified ConA were taken at different exposure time.
Preparation of Carbohydrate arrays by PPL-induced Thiol-ene and Thiol-acrylate reaction. To prepare the pen arrays for inking, they were exposed to O2 plasma (Harrick PDC-001, 30 s, medium power) to render the surfaces of the pen-arrays hydrophilic. […]
Arrays of compound 3 and compound 4 were prepared by the thiol-methacrylate and thiol-ene reactions, respectively, as well as α-mannosides immobilized by the thiol-ene and Cuaac reaction. Binding of Concanavalin A (ConA) to these arrays was measured by fluorescence microscopy to determine how the mutivalency of the resulting glycans affects binding. […]

α-glucomethacrylate [compound 3]
fluorescence after exposure to Rhodamine-labeled PNA [1]: no fluorescence was observed | fluorescence after exposure to Rhodamine-labeled PNA ([1]; listed as Compound 3): no visible fluorescence was observed | lowest ConA concentration detected by the array (Concanavalin A (ConA); ConA concentration varied systematically, thiol-acrylate brush polymer arrays): 0.2 µM | normalized fluorescence of array after ConA binding (Concanavalin A (ConA); Cy3-labelled ConA 0.5 mg/mL, 4 h at 4° C., maximum fluorescence divided by background fluorescence): 7.1±0.2
